“Also recorded” adds a separate entry of the source.
Experiments:
[1] = Cytotoxicity in RAW 264.7 cells (CCK-8); details: mouse
Procedure: The cell viability was determined by the CCK-8 assay method. The cytotoxicity was calculated from the plotted results using untreated cells at 100%.

[2] = system: MKN45; assay: Cytotoxic assay (CCK-8), MKN45; format: cell-based, human; details: mean ± SD (n = 3)
Procedure: (§1) Four human cancer cell lines, A549, NCI-H292, SiHa and MKN45, were purchased from the Cell Bank of the Chinese Academy of Sciences (Shanghai, China). […] Cisplatin (Abmole Bioscience, Shanghai, China) was used as positive control.
(§2) A total of 180 μL of cancer cells (5 × 10^3) were plated in each well of 96-well plates and cultured for 24 h, then the supernatant of the culture was discarded and 180 μL complete medium with different concentrations of test samples were added into triplicate wells of each cell line, respectively. Thereafter, A549, NCI-H292, SiHa and MKN45 were incubated for 48 h, respectively. The cell viability was evaluated by Cell Counting Kit-8 (CCK-8, Best Bio., Beijing, China), respectively. The experiments were performed in triplicate, and the data were expressed as the means ± SD of three independent experiments.

[3] = system: A549; assay: Cytotoxic assay (CCK-8), A549; format: cell-based, human; details: A549, 48 h, mean ± SD (n = 3)
Procedure: as §1, §2

[4] = system: NO production in LPS-activated RAW 264.7 cells; assay: Inhibition of NO production in LPS-activated RAW 264.7 cells (Griess reaction); format: cell-based; details: Mus musculus, RAW264.7; RAW 264.7, 1 μg/mL LPS, 24 h; mean ± SD (n = 3); read-out: IC50 (NO inhibitory activity)
Procedure: The macrophage RAW 264.7 cells were obtained from the Cell Bank of the Chinese Academy of Sciences (Shanghai, China). A total of 180 μL of RAW 264.7 cells (1 × 10^4) were plated respectively in each well of 96-well plate and cultured for 24 h, then the supernatant of the culture was discarded and 180 μL complete medium with 1 μg/mL LPS and different concentrations of test samples were added into triplicate wells for 24 h. The inhibition effects on LPS-stimulated NO production was evaluated by the Griess reaction assay. The experiments were performed in triplicate, and the data were expressed as the means ± SD of three independent experiments.

[5] = system: SiHa; assay: Cytotoxic assay (CCK-8), SiHa; format: cell-based, human; details: Homo sapiens, 48 h, mean ± SD (n = 3)
Procedure: as §1, §2

[6] = system: NCI-H292; assay: Cytotoxic assay (CCK-8), NCI-H292; format: cell-based, human; details: NCI-H292, 48 h, mean ± SD (n = 3)
Procedure: as §1, §2

[7] = DPPH radical scavenging assay; details: for SC50: concentration required for 50% reduction of DPPH radicals, 37 °C, 30 min, 517 nm, nc = SC50 cannot be calculated due to weak or no related activities
Procedure: The 2, 2-diphenyl-1-picrylhydrazyl (Aldrich Chem. Co. Ltd, Shanghai, China) radical scavenging activity assay was performed according to the previously published method with some modification. Test samples were dissolved in MeOH to six different concentrations ranging from 3.125 to 100 μM. Then, 100 μL of 100 μM DPPH in MeOH were mixed with 100 μL of samples at different concentrations in the wells of 96-well plates. The reaction mixtures were incubated in the dark at 37 °C for 30 min and then measured at 517 nm. Ascorbic acid was used as the positive control. The scavenging activity (SC) was estimated as follows: % SC = [1 − (Asample − Ablank)/Acontrol] ×100. Asample was the equivalent mixture of test sample and DPPH solution. Ablank was the equivalent mixture of test sample and MeOH solution. Acontrol was the equivalent mixture of DPPH and MeOH solution. The SC50 values were used to evaluate the antioxidant activities of isolated compounds. The experiments were performed in triplicate, and the data were expressed as the means ± SD of three independent experiments.

[8] = Homo sapiens, MKN-45, MKN45, 48 h

Compound	IC50 [1]	IC50 [2, 8]	IC50 ([3]; Homo sapiens)	IC50 [4]	IC50 [5]	IC50 ([6]; Homo sapiens)	SC50 [7]	antioxidant activity on DPPH radical scavenging (in words) ([7]; compared with positive control ascorbic acid)	SC50 ([7]; listed as ascorbic acid)	IC50 ([2]; MKN45, 48 h)	IC50 [3]	IC50 [6]
O=C(O)/C=C/c1ccc(O)cc1 [Compound 22, p-coumaric acid]	> 200 µM	> 200 µM	> 200 µM	> 200 µM	> 200 µM	> 200 µM						
COc1cc([C@@H](O)[C@@H](CO)Oc2c(OC)cc(/C=C/CO)cc2OC)cc(OC)c1O[C@@H]1O[C@H](CO)[C@@H](O)[C@H](O)[C@H]1O [Compound 14, picraquassioside C]	> 200 µM	> 200 µM	> 200 µM	> 200 µM	> 200 µM	> 200 µM						
COc1cc([C@H](O)[C@@H](CO)Oc2ccc(/C=C/CO)cc2OC)ccc1O[C@@H]1O[C@H](CO)[C@@H](O)[C@H](O)[C@H]1O [Compound 15, citrusin A]	> 200 µM	> 200 µM	> 200 µM	> 200 µM	> 200 µM	> 200 µM						
COc1cc(C(O)C(CO)Oc2c(OC)cc(C3OCC4C(c5ccc(OC6OC(CO)C(O)C(O)C6O)c(OC)c5)OCC34)cc2OC)ccc1O (centres unmarked) [Compound 9, samsesquinoside]	> 200 µM	> 200 µM	> 200 µM	> 200 µM	> 200 µM	> 200 µM	47.3 ± 2.3 µM					
COc1cc([C@H](O)[C@@H](CO)Oc2c(OC)cc(/C=C/CO)cc2OC)ccc1O[C@@H]1O[C@H](CO)[C@@H](O)[C@H](O)[C@H]1O [Compound 16, citrusin B]	> 200 µM	> 200 µM	> 200 µM	> 200 µM	> 200 µM	> 200 µM						
CO[C@H]1C[C@H](OC2CC[C@]3(C)C4CC[C@]5(C)[C@@H](C6=CC(=O)OC6)CC[C@]5(O)C4CC[C@]3(O)C2)O[C@H](C)[C@H]1O[C@@H]1O[C@H](CO)[C@@H](O)[C@H](O)[C@H]1O (some centres unmarked) [Compound 5, periplocin]	> 200 µM	< 0.1 µM	< 0.1 µM	> 200 µM	< 0.1 µM	< 0.1 µM						
OCCc1cc(O)cc(O[C@@H]2O[C@H](CO)[C@@H](O)[C@H](O)[C@H]2O)c1 [Compound 7, 3,5-dihydroxyphenethyl alcohol 3-O-β-D-glucopyranoside]	> 200 µM	> 200 µM	> 200 µM	> 200 µM	> 200 µM	> 200 µM	255.2 ± 12.6 µM	weak antioxidant activities; also recorded: weak activity				
OCCc1ccc(O)c(O[C@@H]2O[C@H](CO)[C@@H](O)[C@H](O)[C@H]2O[C@@H]2O[C@H](CO)[C@@H](O)[C@H](O)[C@H]2O)c1 [Compound 2, 3,4-dihydroxyphenethyl alcohol 3-O-β-D-glucopyranosyl (1→2)-β-D-glucopyranoside]	> 200 µM	> 200 µM	> 200 µM	> 200 µM	> 200 µM	> 200 µM						
OCC1OC(OC2C(OCCc3ccccc3)OC(CO)C(O)C2O)C(O)C(O)C1O (stereo not drawn) [Compound 8, phenethyl alcohol β-sophoroside]	> 200 µM	> 200 µM	> 200 µM	> 200 µM	> 200 µM	> 200 µM						
O=C1O[C@H]([C@@H](O)CO)C(O)=C1O [Ascorbic acid, reference compound]							15.6 ± 0.8 µM		15.5 ± 0.8 µM			
COc1cc(/C=C/CO)ccc1O[C@@H]1O[C@H](CO)[C@@H](O)[C@H](O)[C@H]1O [Compound 25, coniferin]	> 200 µM	> 200 µM	> 200 µM	> 200 µM	> 200 µM	> 200 µM						
C[C@]12CC[C@H](O)C[C@@]1(O)CCC1C2CC[C@]2(C)[C@@H](C3=CC(=O)OC3)CC[C@]12O (some centres unmarked) [Compound 4, perlplogemn]										9.5 ± 0.7 µM	17.4 ± 2.4 µM	22.2 ± 1.1 µM

— article PMC10054634, “Chemical Constituents of Thesium chinense Turcz and Their In Vitro Antioxidant, Anti-Inflammatory and Cytotoxic Activities” (Molecules, 2023)
